From patent US12479834B2, “Phenol compound or salt thereof” (TAIHO PHARMACEUTICAL CO., LTD., priority 2019, dated 2025) come the findings set out here.

For one test, the target named is T1, G12C K-Ras4B (1-169) (Homo sapiens, UniProt P01116, G12C).
T1 construct: G12C K-Ras4B (1-169) protein, which was a KRAS G12C mutant; His tag (N, cleaved yes); made in house; host or cells: E. coli BL21 (DE3)
As to the kind of experiment: Binding to KRAS G12C mutant, compound binding rate by LC-MS. The conditions noted are these: final compound concentration 2 μM, 1 μM protein, 2 hours at 25° C. The source says:
K-Ras4B (1-169) protein was expressed in E. coli strain BL21 (DE3) by synthesizing a nucleotide sequence encoding the amino acid sequence represented by GenPept ID NP_004976 as a sequence optimized for E. coli by use of GeneArt Technology (Life Technologies Corp.) such that the protein was N-terminally His-tagged and fused with a TEV protease recognition sequence (ENLYFQG). The expressed His-tagged K-Ras4B (1-169) was purified through a Ni column, then cleaved at its tag with N-terminally His-tagged TEV protease, and passed through a Ni column again to recover a flow-through fraction, which was further purified by anion-exchange chromatography to obtain the protein. G12C K-Ras4B (1-169) protein, which was a KRAS G12C mutant, was obtained in the same way as in the K-Ras4B(1-169) protein except that glycine at position 12 of the amino acid sequence represented by GenPept ID NP_004976 was mutated to cysteine.
The K-Ras4B (1-169) protein and the G12C K-Ras4B (1-169) protein were mixed and diluted with a buffer solution (1×TBS and 0.1 mM TCEP) to prepare a protein solution containing 1 μM each of the proteins. Each test compound was dissolved at 10 mM in DMSO and further diluted 10-fold with DMSO to make a 1 mM solution. Then, the solution was diluted 5-fold with DMSO to make a 200 μM solution. The 200 μM solution was further diluted 5-fold to make a […] solution. 1 μL of the 40 μM test compound was added to 19 μL of the 1 μM protein solution such that the final compound concentration was 2 μM. The mixture was stored for 2 hours in an incubator of 25° C., and the reaction was terminated by the addition of 80 μL of a 1×TBS solution containing 0.2% formic acid, followed by LC-MS measurement.
The LC-MS measurement was performed by using Xevo G2-S Q-Tof manufactured by Waters Corp., performing reverse-phase chromatography with a desalting column, and obtaining mass spectra of positive ions by electrospray. For the mass spectra, spectra of polyvalent ions were collectively converted to molecular weights by the MaxEnt technique using OpenLynx software, and then, a compound binding rate was obtained from the ratio of […].
The binding rates of test compounds having a final compound concentration of 2 μM for G12C K-Ras4B (1-169) are shown in the table below. The binding rate for G12C K-Ras4B (1-169) is rated “A” for 80% or more, “B” for 60% or more and less than 80%, “C” for 40% or more and less than 60%, “D” for 20% or more and less than 40%, and “E” for less than 20%.

Another test deals with T2, KRAS G12C mutant (Homo sapiens, UniProt P01116, G12C).
T2 construct: 50 μM G12C K-Ras4B (1-169) protein and 1 mM BODIPY® FL GDP; His tag (N, cleaved yes); made in house; host or cells: E. coli BL21 (DE3)
As to the kind of experiment: Inhibition of SOS1-mediated nucleotide (GDP-GTP) exchange reaction of KRAS G12C mutant, BODIPY FL GDP fluorescence. Format: biochemical. The following applies: preincubated 25° C. 4 hours with 25 nM KRAS G12C bound with BODIPY FL GDP; SOS1 100 nM, GppNHp 1 μM, 30 minutes. The source says:
SOS1 protein was expressed in E. coli strain BL21 (DE3) by synthesizing a nucleotide sequence encoding the amino acid sequence represented by GenPept ID NP_005624 as a sequence optimized for E. coli by use of GeneArt Technology (Life Technologies Corp.) such that the protein was N-terminally His-tagged and fused with a TEV protease recognition sequence (ENLYFQG). The expressed His-tagged SOS1 (564-1049) was purified through a Ni column, then cleaved at its tag with N-terminally His-tagged TEV protease, and passed through a Ni column again to recover a flow-through fraction to obtain the protein.
Each compound was studied for its inhibitory effect on the exchange reaction of GDP into GppNHp in BODIPY® FL bound with the KRAS G12C mutant by fluorescence measurement using the G12C K-Ras4B (1-169) protein and the SOS1 protein.
For the preparation of the KRAS G12C mutant bound with BODIPY® FL GDP, first, 50 μM G12C K-Ras4B (1-169) protein and 1 mM BODIPY® FL GDP (Invitrogen Corp., G22360) were incubated for 1 hour in a buffer solution (20 mM Tris-HCl (pH 7.5), 50 mM NaCl, and 1 mM DTT) in ice in the presence of 2.5 mM EDTA. Then, MgCl2 was added thereto at a final concentration of 10 mM, then the mixture was incubated at room temperature for 30 minutes, and then, the protein was passed through a NAP-5 column for removal of free nucleotides and used for compound evaluation.
For the measurement of the inhibitory activity of compounds against nucleotide exchange reaction, first, the compound of the present invention was serially diluted with DMSO. Subsequently, the serially diluted solution of the compound of the present invention in DMSO (final concentration of DMSO: 5%) and the KRAS G12C mutant (25 nM) bound with BODIPY® FL GDP were added into a reaction buffer solution (20 mM Tris-HCl (pH 7.5), 100 mM NaCl, 1 mM MgCl2, 2 mM DTT, and 0.1% Tween 20), and the mixture was preincubated at 25° C. for 4 hours. Then, Son of Sevenless Homolog 1 (SOS1, amino acid region: 564-1049) and GppNHp (GMPPNP, Jena Bioscience GmbH, NU-401-50) were added thereto at final concentrations of 100 nM and 1 μM, respectively, and the mixture was reacted for 30 minutes. The change in fluorescence intensity of BODIPY® FL (excitation wavelength: 485 nm, fluorescence wavelength: 520 nm) between immediately after the start of reaction and after 30 minutes from the start of reaction was standardized, and then, the compound concentration at which 50% inhibition was achieved was calculated as IC50 (nM) when the signal value for only DMSO was defined as 0% inhibition and the signal value for no addition of GppNHp was defined as 100% inhibition.

Usually IC50 stands for the concentration that inhibits the measured activity by half. Consider `C=CC(=O)N1CC(NC(=O)c2c(C)nc(CNc3cc4c(cc3O)CCC4(C)C)n2C)C1` [Example 72, N-(1-Acryloylazetidin-3-yl)-2-(((6-hydroxy-3,3-dimethyl-2,3-dihydro-1H-inden-5-yl)amino)methyl)-1,4-dimethyl-1H-imidazole-5-carboxamide], for which, at G12C K-Ras4B (1-169), the “binding rate for G12C K-Ras4B (1-169)” value was “A (80% or more)”. For the same molecule, on KRAS G12C mutant, 164 nM corresponded to half-maximal inhibition (IC50).

On to `C=CC(=O)N1CC(NC(=O)c2ccc(CNc3cc(C(C)(C)C)c(Br)cc3O)o2)C1` [Example 65, N-(1-Acryloylazetidin-3-yl)-5-(((4-bromo-5-(tert-butyl)-2-hydroxyphenyl)amino)methyl)furan-2-carboxamide], for which, on G12C K-Ras4B (1-169), the “binding rate for G12C K-Ras4B (1-169)” value is recorded as “A (80% or more)”. The molecule further returned an IC50 against KRAS G12C mutant of 353 nM.

With `C=CC(=O)N1CC(NC(=O)c2c(C)nc(C(C)Nc3cc(C(C)(C)C)c(Cl)cc3O)n2C)C1` (stereo not shown) [Example 81, N-(1-Acryloylazetidin-3-yl)-2-(1-((5-(tert-butyl)-4-chloro-2-hydroxyphenyl)amino)ethyl)-1,4-dimethyl-1H-imidazole-5-carboxamide], at G12C K-Ras4B (1-169), the “binding rate for G12C K-Ras4B (1-169)” value was “B (60% or more and less than 80%)”. Besides, half-maximal inhibition at KRAS G12C mutant (IC50) required 225 nM.

On to `C=CC(=O)N1CC(NC(=O)c2cnc(CNc3cc(C(C)(C)C)cc(C)c3O)n2C)C1` [Example 74, N-(1-Acryloylazetidin-3-yl)-2-(((5-(tert-butyl)-2-hydroxy-3-methylphenyl)amino)methyl)-1-methyl-1H-imidazole-5-carboxamide], for which the “binding rate for G12C K-Ras4B (1-169)” value on G12C K-Ras4B (1-169) is listed as “E (less than 20%)”. This molecule gave an IC50 on KRAS G12C mutant of 701 nM.

Consider `C=CC(=O)N1CC(NC(=O)c2c(C(F)(F)F)nc(CNc3cc(C(C)(C)C)c(C)cc3O)n2C(C)C)C1` [Example 77, N-(1-Acryloylazetidin-3-yl)-2-(((5-(tert-butyl)-2-hydroxy-4-methylphenyl)amino)methyl)-1-isopropyl-4-(trifluoromethyl)-1H-imidazole-5-carboxamide], for which, on G12C K-Ras4B (1-169), the “binding rate for G12C K-Ras4B (1-169)” value was “D (20% or more and less than 40%)”. On KRAS G12C mutant, the IC50 turned out to be 240 nM.

On to `C=CC(=O)N1CC(NC(=O)c2ccc(CNc3cc(C(=C)C)c(Cl)cc3O)o2)C1` [Example 47, N-(1-Acryloylazetidin-3-yl)-5-(((4-chloro-2-hydroxy-5-(prop-1-en-2-yl)phenyl)amino)methyl)furan-2-carboxamide], for which the “binding rate for G12C K-Ras4B (1-169)” value at G12C K-Ras4B (1-169) is “D (20% or more and less than 40%)”. The midpoint of inhibition on KRAS G12C mutant, the IC50, lay at 4740 nM.

In the case of `C=CC(=O)N1CC(NC(=O)c2ccc(C(C)Nc3cc(C(C)(C)C)c(Cl)cc3O)o2)C1` (stereo not shown) [Example 79, N-(1-Acryloylazetidin-3-yl)-5-(1-((5-(tert-butyl)-4-chloro-2-hydroxyphenyl)amino)ethyl)furan-2-carboxamide], the “binding rate for G12C K-Ras4B (1-169)” value at G12C K-Ras4B (1-169) is “D (20% or more and less than 40%)”. The molecule further displayed an IC50 against KRAS G12C mutant of 3900 nM.

Consider `C=CC(=O)N1CC(NC(=O)c2cnc(CNc3cc(C4CC4(F)F)c(Cl)cc3O)n2C)C1` (stereo not shown) [Example 55, N-(1-Acryloylazetidin-3-yl)-2-(((4-chloro-5-(2,2-difluorocyclopropyl)-2-hydroxyphenyl)amino)methyl)-1-methyl-1H-imidazole-5-carboxamide], for which the “binding rate for G12C K-Ras4B (1-169)” value at G12C K-Ras4B (1-169) was “C (40% or more and less than 60%)”. Besides, the IC50 against KRAS G12C mutant turned out to be 122 nM.

Turning to `C=CC(=O)N1CC(NC(=O)c2cnc(CNc3cc(C(C)C)c(Cl)cc3O)n2C)C1` [Example 60, N-(1-Acryloylazetidin-3-yl)-2-(((4-chloro-2-hydroxy-5-isopropylphenyl)amino)methyl)-1-methyl-1H-imidazole-5-carboxamide], at G12C K-Ras4B (1-169), the “binding rate for G12C K-Ras4B (1-169)” value is “A (80% or more)”. At KRAS G12C mutant, this molecule displayed an IC50 of 37 nM.

With `C=CC(=O)N1CC(NC(=O)c2ccc(CNc3cc(C(C)(C)C)c(Cl)cc3OC)o2)C1` [Reference Example1, N-(1-Acryloylazetidin-3-yl)-5-(((5-(tert-butyl)-4-chloro-2-methoxyphenyl)amino)methyl)furan-2-carboxamide, reference compound], the “binding rate for G12C K-Ras4B (1-169)” value on G12C K-Ras4B (1-169) is given as “E (less than 20%)”. The IC50 against KRAS G12C mutant is > 10000 nM.

Take `C=CC(=O)N1CC(N(C)C(=O)c2cccc(CNc3cc(C(C)(C)C)c(Cl)cc3O)n2)C1` [Example 30, N-(1-Acryloylazetidin-3-yl)-6-(((5-(tert-butyl)-4-chloro-2-hydroxyphenyl)amino)methyl)-N-methylpicolinamide]: at G12C K-Ras4B (1-169), the “binding rate for G12C K-Ras4B (1-169)” value is reported as “E (less than 20%)”. The molecule further showed an IC50 against KRAS G12C mutant of 1690 nM.

For the molecule `C=CC(=O)N1CC(NC(=O)c2c(I)nc(CNc3cc(C(C)(C)C)c(Cl)cc3O)n2C)C1` [Example 27, N-(1-Acryloylazetidin-3-yl)-2-(((5-(tert-butyl)-4-chloro-2-hydroxyphenyl)amino)methyl)-4-iodo-1-methyl-1H-imidazole-5-carboxamide], the “binding rate for G12C K-Ras4B (1-169)” value at G12C K-Ras4B (1-169) is reported as “A (80% or more)”. For the same molecule, the IC50 against KRAS G12C mutant was 16 nM.

Take `C=CC(=O)N1CC(NC(=O)c2cnc(CNc3nc(C(C)(C)C)c(Cl)cc3O)n2C)C1` [Example 83, N-(1-Acryloylazetidin-3-yl)-2-(((6-(tert-butyl)-5-chloro-3-hydroxypyridin-2-yl)amino)methyl)-1-methyl-1H-imidazole-5-carboxamide]: the “binding rate for G12C K-Ras4B (1-169)” value at G12C K-Ras4B (1-169) is “B (60% or more and less than 80%)”. The IC50 on KRAS G12C mutant was 23 nM.

On to `C=CC(=O)N1CC(NC(=O)c2cnc(CCc3cc(C(C)(C)C)c(Cl)cc3O)n2C)C1` [Example 90, N-(1-Acryloylazetidin-3-yl)-2-(5-(tert-butyl)-4-chloro-2-hydroxyphenethyl)-1-methyl-1H-imidazole-5-carboxamide], for which the “binding rate for G12C K-Ras4B (1-169)” value at G12C K-Ras4B (1-169) is “D (20% or more and less than 40%)”. Further, on KRAS G12C mutant, the IC50 was 549 nM.
